Assay results published in paper PMC3961230, “Theoretical and Experimental Studies of New Modified Isoflavonoids as Potential Inhibitors of Topoisomerase I from Plasmodium falciparum” (PLoS ONE, 2014).
Converted amounts (≈) assume the structure as drawn. Like-named read-outs stand apart in the source and are kept apart here.

Tests used:
[1] = tested on: P. falciparum CQ-resistant (W2 clone); experiment: anti-HRPII test, P. falciparum blood parasites, CQ-resistant W2 clone; assay type: cell-based; conditions: Plasmodium falciparum
Source text: (§1) A CQ-resistant and mefloquine-sensitive P. falciparum, clone W2 [27] and a CQ-sensitive strain 3D7, were cultivated as described, in human erythrocytes (A^+), in complete medium (RPMI 1640 supplemented with 10% human sera blood group A^+) and tests followed a protocol slightly modified as follows. Human erythrocytes (A^+) and serum blood group A^+ were kindly donated by Center of Hemotherapy and Hemathology of Minas Gerais (HEMOMINAS - http://www.hemominas.mg.gov.br), under the mutual cooperation term number 18/09.
(§2) The ring-stage parasites sorbitol-synchronized were adjusted for parasitemia and hematocrit, according to the specifications for the test, then distributed in 96-well microtiter plates (Corning, Santa Clara, CA, EUA), previously prepared and containing the diluted compounds in dimethyl sulfoxide (DMSO) (0.02%) aqueous stock solution, in triplicates for each dose. CQ, the standard antimalarial, was tested in parallel each time. The drug activity was determined in relation to parasite cultures in complete medium and no drugs, as described. Parasite growth was measured through the anti-HRPII test in cultures adjusted to 1.5% hematocrit and 0.05% parasitemia, with monoclonal antibodies (MPFM-55A and MPFG-55P) commercially acquired (ICLLAB®, USA) and the TMB chromogen (3,3′,5,5′-Tetramethylbenzidine) from KPL (Gaithersburg, MD, EUA). The reaction was stopped with […] of 1 M sulfuric acid, absorbance read at 450 nm in a spectrophotometer (SpectraMax340PC384, Molecular Devices). Sigmoid dose-response curves were generated with curve-fitting software (Microcal Origin Software 5.0, Inc.), used to determine the 50% inhibitory concentration of the parasite growth (IC50), and activity calculated by comparing growth in drug-exposed cultures and the drug-free control cultures.

[2] = tested on: P. falciparum CQ-sensitive (3D7 strain); experiment: anti-HRPII test, P. falciparum blood parasites, CQ-sensitive 3D7 strain; assay type: cell-based; conditions: Plasmodium falciparum
Source text: as §1, §2

[3] = tested on: normal kidney glomerular cells from green monkey (BGM); experiment: Cytotoxicity test (MTT) against BGM cells; assay type: cell-based; conditions: for MDL50 (µg/mL) Mean ± SD: 24 h
Protocol: The cytotoxicity tests were performed against normal kidney glomerular cells from green monkey (BGM) as follows. The cells were cultured under a 5% CO2 atmosphere, at 37°C, in 75 cm^2 sterile flasks in RPMI 1640 medium supplemented with 10% heat-inactivated fetal calf serum, and 40 mg/L gentamicin. When confluent, the cell monolayer was washed with culture medium, trypsinized, distributed in flat-bottomed 96-well plates (5×10^3 cells/well), and incubated for 18 h at 37°C for cell adherence. The compounds (20 µL) were added to the cell plates, at various concentrations (1000 to1 µg/mL), incubated for 24 h, then received a solution of MTT [3-(4,5-dimethylthiazol-2-yl)-2,5-diphenyltetrazolium bromide] (5 mg/mL; 20 µL/well), followed by another 3 h incubation, to evaluate mitochondrial viability. The supernatants were removed, DMSO added to each well (100 µL), carefully mixed to solubilize the formazan crystals. The optical density was determined at 570 and 630 nm (background) (SpectraMax340PC384, Molecular Devices). Cell viability was expressed as the percentage of the control absorbance in the untreated cells after subtracting the appropriate background. The minimum lethal dose for 50% of the cells (MLD50) was determined and the selectivity index (SI) calculated as the ratio between cytotoxicity and activity.

[4] = tested on: P. berghei CQ-sensitive (NK65); experiment: Antimalarial suppressive test against P. berghei in mice; assay type: in vivo, P. berghei in Swiss mice; conditions: for % Reduction of parasitemia, 5th day, Exp.1 / Mean Parasitemia ± SD, 5th day, Exp.1 / % Reduction of parasitemia, 7th day, Exp.1 / Mean Parasitemia ± SD, 7th day, Exp.1 / % Reduction of parasitemia, 5th day, Exp.2 / Mean Parasitemia ± SD, 5th day, Exp.2 / % Reduction of parasitemia, 7th day, Exp.2 / Mean Parasitemia ± SD, 7th day, Exp.2: oral, 3 days; for % Reduction of parasitemia, 5th day, Exp.1 / Mean Parasitemia ± SD, 5th day, Exp.1 / % Reduction of parasitemia, 7th day, Exp.1 / Mean Parasitemia ± SD, 7th day, Exp.1: chloroquine 5 mg/kg, LQB223 100 mg/kg; for % Reduction of parasitemia, 5th day, Exp.1 / % Reduction of parasitemia, 5th day, Exp.2: day 5; for % Reduction of parasitemia, 5th day, Exp.1 / % Reduction of parasitemia, 7th day, Exp.1 / % Reduction of parasitemia, 5th day, Exp.2 / % Reduction of parasitemia, 7th day, Exp.2: versus non-treated mice; for Mean Parasitemia ± SD, 5th day, Exp.1 / Mean Parasitemia ± SD, 5th day, Exp.2: day 5 of infection; for % Reduction of parasitemia, 7th day, Exp.1 / % Reduction of parasitemia, 7th day, Exp.2: day 7; for Mean Parasitemia ± SD, 7th day, Exp.1 / Mean Parasitemia ± SD, 7th day, Exp.2: day 7 of infection; for % Reduction of parasitemia, 5th day, Exp.2 / Mean Parasitemia ± SD, 5th day, Exp.2 / % Reduction of parasitemia, 7th day, Exp.2 / Mean Parasitemia ± SD, 7th day, Exp.2: chloroquine 15 mg/kg, LQB223 50 mg/kg
Protocol: The antimalarial suppressive test in mice, as previously described, was slightly modified. Briefly, Swiss outbred adult female mice, 20±2 g weight, were inoculated with P. berghei CQ-sensitive (NK65) by intraperitoneal route, 1×10^5 freshly infected red blood cells (iRBC) per animal. Two to 24 h later, the mice were randomly distributed to be submitted to drug treatment by oral route, during three consecutive days, once a day; two control groups were used, one non treated and another treated with CQ (either 5 or 15 mg/kg).
The molecule LQB223, freshly diluted with 3% DMSO in water immediately before treatment, was given by gavage, in doses of 100 and 50 mg/kg in 200 µL volume per animal. Blood smears were prepared at days fifth and seventh after parasite inoculation, methanol-fixed, stained with Giemsa, and examined microscopically for parasitemia determination. […] Molecules reducing parasitemia by 30% or more were considered active.

[5] = tested on: P. falciparum CQ-resistant (W2 clone); conditions: ref [9], [10]; cited from earlier work
[6] = tested on: P. falciparum CQ-sensitive (3D7 strain); conditions: ref [9], [10]; cited from earlier work
[7] = CQ-resistant W2, anti-HRPII test, three experiments, ≤10 active, 11–20 partially active, >20 inactive, read-out: IC50 (µg/mL) Mean ± SD, W2
[8] = CQ-sensitive 3D7, anti-HRPII test, three experiments, ≤10 active, 11–20 partially active, >20 inactive, read-out: IC50 (µg/mL) Mean ± SD, 3D7
[9] = BGM monkey kidney cells, MTT, minimal lethal dose for 50% of cells
[10] = W2, CQ-resistant P. falciparum, single curve printed in the picture, read-out: IC50 from dose response curve (Figure 3)

Structure (SMILES): O=C1C2=C(C(=O)c3ccccc31)[C@H]1Oc3ccccc3[C@H]1CO2 (relative stereo) [LQB118]
- IC50 [1, 7]: 0.17 ± 0.1 µg/mL (≈ 0.559 µM)
- IC50 [2, 8]: 0.16 ± 0.03 µg/mL (≈ 0.526 µM)
- toxicity to BGM cells [3]: toxic to BGM cells
- MDL50 (µg/mL) Mean ± SD ([3]; green monkey): ≤3.9 µg/mL

Structure (SMILES): Cc1ccc(S(=O)(=O)N2c3ccccc3[C@H]3COC4=C(C(=O)c5ccccc5C4=O)[C@H]32)cc1 (relative stereo) [LQB192]
- IC50 [1, 7]: 2.9 ± 2.5 µg/mL (≈ 6.34 µM)
- IC50 [2, 8]: 3.8 ± 1 µg/mL (≈ 8.31 µM)
- toxicity to BGM cells ([3]; BGM cells): toxic to BGM cells
- MDL50 (µg/mL) Mean ± SD [3, 9]: 68.7 ± 8.4 µg/mL

Structure (SMILES): COc1ccc2c(c1)O[C@@H]1C3=C(OC[C@H]21)C(=O)c1ccccc1C3=O (relative stereo) [LQB216]
- IC50 [1, 10]: 0.23 µg/mL (≈ 0.688 µM)
- IC50 [1, 7]: 0.4 ± 0.2 µg/mL (≈ 1.2 µM)
- IC50 [2, 8]: 0.21 ± 0.09 µg/mL (≈ 0.628 µM)
- MDL50 (µg/mL) Mean ± SD [3, 9]: 24.2 ± 3 µg/mL

Structure (SMILES): COC(=O)c1ccc2c(c1)[C@H]1COC3=C(C(=O)c4ccccc4C3=O)[C@H]1O2 (relative stereo) [LQB221]
- IC50 [1, 7]: 0.63 ± 0.8 µg/mL (≈ 1.74 µM)
- IC50 [2, 8]: 0.25 ± 0.1 µg/mL (≈ 0.69 µM)
- toxicity to BGM cells ([3]; BGM cells): toxic to BGM cells
- MDL50 (µg/mL) Mean ± SD [3, 9]: 5.1 µg/mL

Structure (SMILES): COc1cc(C=O)cc2c1O[C@@H]1C3=C(OC[C@H]21)C(=O)c1ccccc1C3=O (relative stereo) [LQB222]
- IC50 [1, 7]: 1.8 ± 1.6 µg/mL (≈ 4.97 µM)
- IC50 [2, 8]: 3.5 ± 0.4 µg/mL (≈ 9.66 µM)
- toxicity to BGM cells ([3]; BGM cells): toxic to BGM cells
- MDL50 (µg/mL) Mean ± SD [3, 9]: ≤3.9 µg/mL

Structure (SMILES): Cc1ccc(S(=O)(=O)N2c3ccccc3[C@H]3CCc4ccccc4[C@H]32)cc1 (relative stereo) [LQB223]
- IC50 [1, 10]: 12.4 µg/mL (≈ 33 µM)
- IC50 [1, 7]: 10.2 ± 1.2 µg/mL (≈ 27.2 µM)
- IC50 [2, 8]: 7.8 ± 3 µg/mL (≈ 20.8 µM)
- MDL50 (µg/mL) Mean ± SD [3, 9]: ≥1000 µg/mL
- % Reduction of parasitemia, 5th day, Exp.1 [4]: 67%
- Mean Parasitemia ± SD, 5th day, Exp.1 [4]: 0.15±0.2
- % Reduction of parasitemia, 7th day, Exp.1 [4]: 28%
- Mean Parasitemia ± SD, 7th day, Exp.1 [4]: 11±3
- % Reduction of parasitemia, 5th day, Exp.2 [4]: 30%
- Mean Parasitemia ± SD, 5th day, Exp.2 [4]: 1.2±0.5
- % Reduction of parasitemia, 7th day, Exp.2 [4]: 13%
- Mean Parasitemia ± SD, 7th day, Exp.2 [4]: 18.3±1.5
- antimalarial activity in vivo ([4]; mice infected with P. berghei): active in vivo

Structure (SMILES): CCN(CC)CCCC(C)Nc1ccnc2cc(Cl)ccc12 (stereo not drawn) [Chloroquine, chloroquine, reference compound]
- IC50 ([1]; W2, read-out: IC50 (µg/mL) Mean ± SD, W2): 0.138 µg/mL (≈ 0.431 µM)
- IC50 ([2]; 3D7, read-out: IC50 (µg/mL) Mean ± SD, 3D7): 0.03 µg/mL (≈ 0.0938 µM)
- % Reduction of parasitemia, 5th day, Exp.1 [4]: 100%
- Mean Parasitemia ± SD, 5th day, Exp.1 [4]: 0
- % Reduction of parasitemia, 7th day, Exp.1 [4]: 52%
- Mean Parasitemia ± SD, 7th day, Exp.1 [4]: 7.3±3
- % Reduction of parasitemia, 5th day, Exp.2 [4]: 100%
- Mean Parasitemia ± SD, 5th day, Exp.2 [4]: 0±0.0
- % Reduction of parasitemia, 7th day, Exp.2 [4]: 100%
- Mean Parasitemia ± SD, 7th day, Exp.2 [4]: 0±0.0
- IC50, W2 clone, previous work [5]: 0.07 µg/mL (≈ 0.219 µM)
- IC50, 3D7 strain, previous work [6]: 0.0035 µg/mL (≈ 0.0109 µM)
